Results on 16 compounds are retold here after patent US11339171B2, “MDM2 inhibitors” (Gan & Lee Pharmaceuticals, priority 2017, dated 2022).

For one assay, the target named is T1, MDM2 (Homo sapiens, UniProt Q00987).
T1 construct: made in house
Kind of assay: Inhibition test of MDM2-P53 (GST-MDM2, Biotin-P53, Anti-GST-Tb, SA-XL665). It is filed as binding. The method, boiled down:
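Binding was measured by TR-FRET with GST-MDM2 at 4 nM final in PBS with 0.1% BSA, 5 mM DTT and 1 mM AEBSF. Compounds were tested as twelve-point 5-fold dilutions and incubated with the detection mix for 90 min at 25 °C with shaking before plate-reader reading and curve fitting.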

Assay [1] concerns human osteosarcoma cell line SJSA-1. In words: Inhibition of proliferation of human osteosarcoma cell line SJSA-1 (DAPI staining, In Cell Analyzer). The settings on record: for IC50: Homo sapiens, SJSA-1, 72 h, read-out: IC50 (nM), inhibitory activity on proliferation of human osteosarcoma cell line SJSA-1, SJSA-1, incubated 72 h.
Where [2] appears, read: labels are Example numbers, the compounds with S-configuration are meant.

Molecules are shown by their SMILES.

T1 sequence (Q00987 whole entry): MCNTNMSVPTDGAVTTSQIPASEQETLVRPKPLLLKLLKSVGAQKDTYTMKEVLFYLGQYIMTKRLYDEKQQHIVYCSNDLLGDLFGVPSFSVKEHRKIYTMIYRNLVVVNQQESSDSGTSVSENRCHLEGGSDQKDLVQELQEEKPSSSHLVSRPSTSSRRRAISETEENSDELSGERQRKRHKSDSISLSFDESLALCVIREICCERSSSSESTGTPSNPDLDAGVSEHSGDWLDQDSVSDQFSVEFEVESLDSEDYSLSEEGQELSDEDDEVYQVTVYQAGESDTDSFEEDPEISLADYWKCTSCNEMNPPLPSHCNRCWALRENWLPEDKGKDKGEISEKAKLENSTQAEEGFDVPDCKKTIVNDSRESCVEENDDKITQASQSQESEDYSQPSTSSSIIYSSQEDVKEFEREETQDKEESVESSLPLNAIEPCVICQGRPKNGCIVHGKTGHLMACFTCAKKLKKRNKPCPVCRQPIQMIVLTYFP

Regarding `COc1cc(N(C)C)ncc1-c1nc2c(n1C(C)C)[C@@]1(C(=O)Nc3cc(Cl)ccc31)N(c1cccc(Cl)c1)C2=O` [Example S-113, (S)-6-chloro-5′-(3-chlorophenyl)-2′-(6-(dimethylamino)-4-methoxypyridin-3-yl)-3′-isopropyl-3′H-spiro[dihydroindole-3,4′-pyrrolo[3,4-d]imidazole]-2,6′(5′H)-dione], the results for the IC50 (on MDM2; in assay [1]) were 1.25 nM and 26.7 nM, respectively.

For the compound `COc1cc(OC)c(-c2nc3c(n2C(C)C)[C@]2(C(=O)Nc4cc(Cl)ccc42)N(c2cc(Cl)ccc2C)C3=O)cc1C` [Example R-83, (R)-6-chloro-5′-(5-chloro-2-methylphenyl)-2′-(2,4-dimethoxy-5-methylphenyl)-3′-isopropyl-3′H-spiro[dihydroindole-3,4′-pyrrolo[3,4-d]imidazole]-2,6′(5′H)-dione], the IC50 came to 87.6 nM against MDM2 and 589 nM in assay [1].

As to `CCc1ccc(OC)c(-c2nc3c(n2C(C)C)[C@@]2(C(=O)Nc4cc(Cl)ccc42)N(c2cc(Cl)ccc2C)C3=O)c1` [Example S-37, (S)-6-chloro-5′-(5-chloro-2-methylphenyl)-2′-(5-ethyl-2-methoxyphenyl)-3′-isopropyl-3′H-spiro[dihydroindole-3,4′-pyrrolo[3,4-d]imidazole]-2,6′(5′H)-dione], the IC50 came to 22 nM on MDM2 and 14.2 nM in assay [1].

For `CCc1ccccc1-c1nc2c(n1C(C)C)[C@@]1(C(=O)Nc3cc(Cl)ccc31)N(c1cc(Cl)ccc1C)C2=O` [Example S-7, (S)-6-chloro-5′-(5-chloro-2-methylphenyl)-2′-(2-ethylphenyl)-3′-isopropylisopropyl-3′H-spiro[dihydroindole-3,4′-pyrrolo[3,4-d]imidazole]-2,6′(5′H)-dione], the IC50 on MDM2 turned out to be 73.2 nM; in assay [1], 1270 nM.

Regarding `COc1cc(C(F)(F)F)ncc1-c1nc2c(n1C(C)C)[C@@]1(C(=O)Nc3cc(Cl)ccc31)N(c1cccc(Cl)c1)C2=O` [Example S-142, (S)-6-chloro-5′-(3-chlorophenyl)-3′-isopropyl-2′-(4-methoxy-6-(trifluoromethyl)pyridin-3-yl)-3′H-spiro[dihydroindole-3,4′-pyrrolo[3,4-d]imidazole]-2,6′(5′H)-dione], the IC50 against MDM2 stood at 1.45 nM; in assay [1], 138 nM.

As to `COc1cc(N)c(C)cc1-c1nc2c(n1C(C)C)[C@@]1(C(=O)Nc3cc(Cl)ccc31)N(c1cc(Cl)ccc1C)C2=O` [Example S-74, (S)-2′-(4-amino-2-methoxy-5-methylphenyl)-6-chloro-5′-(5-chloro-2-methylphenyl)-3′-isopropyl-3′H-spiro[dihydroindole-3,4′-pyrrolo[3,4-d]imidazole]-2,6′(5′H)-dione], the IC50 on MDM2 is 0.98 nM; in assay [1], 7.85 nM.

With `COc1cc(C2CC2)ccc1-c1nc2c(n1C(C)C)[C@@]1(C(=O)Nc3cc(Cl)ccc31)N(c1cc(Cl)ccc1C)C2=O` [Example S-86, (S)-6-chloro-5′-(5-chloro-2-methylphenyl)-2′-(4-cyclopropyl-2-methoxyphenyl)-3′-isopropyl-3′H-spiro[dihydroindole-3,4′-pyrrolo[3,4-d]imidazole]-2,6′(5′H)-dione], the IC50 on MDM2 is 2.59 nM; in assay [1], 21.2 nM.

As for `COc1nc(OCCF)ncc1-c1nc2c(n1C(C)C)[C@]1(C(=O)Nc3cc(Cl)ccc31)N(c1cc(Cl)ccc1C)C2=O` [Example R-140, (R)-6-chloro-5′-(5-chloro-2-methylphenyl)-2′-(2-(2-fluoroethoxy)-4-methoxypyrimidin-5-yl)-3′-isopropyl-3′H-spiro[dihydroindole-3,4′-pyrrolo[3,4-d]imidazole]-2,6′(5′H)-dione], the IC50 came to 147 nM against MDM2 and 863 nM in assay [1].

With `COc1ncc(-c2nc3c(n2C(C)C)[C@]2(C(=O)Nc4cc(Cl)ccc42)N(c2cc(Cl)cn(C)c2=O)C3=O)c(OC)n1` [Example R-16, (R)-6-chloro-5′-(5-chloro-1-methyl-2-oxo-1,2-dihydropyridin-3-yl)-2′-(2,4-dimethoxypyrimidin-5-yl)-3′-isopropyl-3′H-spiro[dihydroindole-3,4′-pyrrolo[3,4-d]imidazole]-2,6′(5′H)-dione], the IC50 on MDM2 is 570 nM; in assay [1] it was 20100 nM.

As to `COc1cc(C(C)C)ccc1-c1nc2c(n1C(C)C)[C@@]1(C(=O)Nc3cc(Cl)ccc31)N(c1cc(Cl)cnc1C)C2=O` [Example S-89, (S)-6-chloro-5′-(5-chloro-2-methylpyridin-3-yl)-3′-isopropyl-2′-(4-isopropyl-2-methoxyphenyl)-3′H-spiro[dihydroindole-3,4′-pyrrolo[3,4-d]imidazole]-2,6′(5′H)-dione], the IC50 on MDM2 was 4.32 nM; in assay [1], 43.2 nM.

As for `CCOc1cc(OC)c(-c2nc3c(n2C(C)C)C2(C(=O)Nc4cc(Cl)ccc42)N(c2cc(Cl)ccc2F)C3=O)cn1` (centres unmarked) [Example 98, 6-chloro-5′-(5-chloro-2-fluorophenyl)-2′-(6-ethoxy-4-methoxypyridin-3-yl)-3′-isopropyl-3′H-spiro[dihydroindole-3,4′-pyrrolo[3,4-d]imidazole]-2,6′(5′H)-dione], the “inhibitory effect on MDM2 compared with positive control compound HDM201” value at MDM2 (setting [2]) is “better”. Also, the “inhibitory effect on human osteosarcoma cell line SJSA-1 compared with positive control compound HDM201” value in assay [1] (setting [2]) is “better”.

Turning to `COc1cc(OC)c(-c2nc3c(n2C(C)C)[C@@]2(C(=O)Nc4cc(Cl)ccc42)N(c2cc(Cl)ccc2C)C3=O)cc1F` [Example S-92, (S)-6-chloro-5′-(5-chloro-2-methylphenyl)-2′-(5-fluoro-2,4-dimethoxyphenyl)-3′-isopropyl-3′H-spiro[dihydroindole-3,4′-pyrrolo[3,4-d]imidazole]-2,6′(5′H)-dione], the IC50 against MDM2 stood at 1.72 nM; in assay [1] it was 19.9 nM.

Consider `COc1ncc(-c2nc3c(n2C(C)C)[C@]2(C(=O)Nc4cc(Cl)ccc42)N(c2cc(Cl)cnc2C)C3=O)c(OC)n1` [Example R-42, (R)-6-chloro-5′-(5-chloro-2-methylpyridin-3-yl)-2′-(2,4-dimethoxypyrimidin-5-yl)-3′-isopropyl-3′H-spiro[dihydroindole-3,4′-pyrrolo[3,4-d]imidazole]-2,6′(5′H)-dione], for which the IC50 at MDM2 was found to be 364 nM; in assay [1], 4560 nM.

In the case of `CCc1ccc(OC)c(-c2nc3c(n2C(C)C)[C@@]2(C(=O)Nc4cc(Cl)ccc42)N(c2cccc(Cl)c2)C3=O)c1` [Example S-38, (S)-6-chloro-5′-(3-chlorophenyl)-2′-(5-ethyl-2-methoxyphenyl)-3′-isopropyl-3′H-spiro[dihydroindole-3,4′-pyrrolo[3,4-d]imidazole]-2,6′(5′H)-dione], the IC50 on MDM2 is 12 nM; in assay [1] it was 14.7 nM.

Take `CCOc1cc(OC)c(-c2nc3c(n2C(C)C)[C@@]2(C(=O)Nc4cc(Cl)ccc42)N(c2cccc(Cl)c2)C3=O)cn1` [Example S-102, (S)-6-chloro-5′-(3-chlorophenyl)-2′-(6-ethoxy-4-methoxypyridin-3-yl)-3′-isopropyl-3′H-spiro[dihydroindole-3,4′-pyrrolo[3,4-d]imidazole]-2,6′(5′H)-dione]: the figures for the IC50 (at MDM2; in assay [1]) were 2.01 nM and 57.4 nM, respectively.

On to `COc1cc(N)ccc1-c1nc2c(n1C(C)C)[C@]1(C(=O)Nc3cc(Cl)ccc31)N(c1cc(Cl)ccc1F)C2=O` [Example R-66, (R)-2′-(4-amino-2-methoxyphenyl)-6-chloro-5′-(5-chloro-2-fluorophenyl)-3′-isopropyl-3′H-spiro[dihydroindole-3,4′-pyrrolo[3,4-d]imidazole]-2,6′(5′H)-dione], for which the IC50 on MDM2 stood at 85.9 nM; in assay [1], 3860 nM.
